According to patent US9562043B2 (EA Pharma Co., Ltd., priority 2012, dated 2017):

Legend:
TRPA1 channel = biological target: T1, TRPA1 channel (Mus musculus, UniProt Q8BLA8); assay: AITC-induced pain behavior evaluation test (mouse licking model); type: in vivo; settings: male ICR mice; p.o. 30 mpk, 1 h before AITC (0.1%) s.c. to sole; licking time in 5 min vs vehicle
T1 construct: from tissue; host or cells: living male ICR mice (sole of the left leg, sensory nerves)
Description: AITC-Induced Pain Behavior Evaluation Test
To evaluate the effectiveness of the test substance in vivo, allylisothiocyanate (AITC)-induced pain behavior evaluation test was performed using mice.
AITC is a selective agonist of the TRPA1 channel, and causes a pain behavior by TRPA1 activation when administered to animal. Therefore, the intensity of the TRPA1 antagonist action of the test substance in the living body can be evaluated by measuring the pain behavior after AITC administration.
1. Administration of Test Substance to Animal
As the animal, male ICR mice (6- to 8-week-old) were used. The mice were fasted the previous day of the test. The test substance was intraperitoneally or orally administered for evaluation. In the case of intraperitoneal administration, the substance was administered 30 min before the AITC administration. In the oral administration, the substance was administered 60 min before the AITC administration.
2. AITC-Induced Pain Behavior Evaluation
3. Calculation of Inhibitory Rate
The licking time of the vehicle administration group in each test was taken as 100%, and the activity rate by administration of each test substance (Licking time on test substance administration/Licking time of vehicle administration group×100) was determined, and the numerical value obtained by subtracting the activity rate from 100 was calculated as an inhibitory rate.

human TRPA1 = biological target: T2, human TRPA1 (Homo sapiens, UniProt O75762); assay: Measurement of TRPA1 antagonist activity (intracellular calcium increase, FLIPR); type: cell-based; settings: 293T cells transfected with human TRPA1 expression plasmid, allylisothiocyanate 20 μM stimulation, calcium fluorescence, read-out: antagonism hTRPA1
T2 construct: host or cells: human embryonic kidney-derived 293T cells, transient transfection with pcDNA3.1/zeo(+) plasmid
T2 sequence (O75762 whole entry): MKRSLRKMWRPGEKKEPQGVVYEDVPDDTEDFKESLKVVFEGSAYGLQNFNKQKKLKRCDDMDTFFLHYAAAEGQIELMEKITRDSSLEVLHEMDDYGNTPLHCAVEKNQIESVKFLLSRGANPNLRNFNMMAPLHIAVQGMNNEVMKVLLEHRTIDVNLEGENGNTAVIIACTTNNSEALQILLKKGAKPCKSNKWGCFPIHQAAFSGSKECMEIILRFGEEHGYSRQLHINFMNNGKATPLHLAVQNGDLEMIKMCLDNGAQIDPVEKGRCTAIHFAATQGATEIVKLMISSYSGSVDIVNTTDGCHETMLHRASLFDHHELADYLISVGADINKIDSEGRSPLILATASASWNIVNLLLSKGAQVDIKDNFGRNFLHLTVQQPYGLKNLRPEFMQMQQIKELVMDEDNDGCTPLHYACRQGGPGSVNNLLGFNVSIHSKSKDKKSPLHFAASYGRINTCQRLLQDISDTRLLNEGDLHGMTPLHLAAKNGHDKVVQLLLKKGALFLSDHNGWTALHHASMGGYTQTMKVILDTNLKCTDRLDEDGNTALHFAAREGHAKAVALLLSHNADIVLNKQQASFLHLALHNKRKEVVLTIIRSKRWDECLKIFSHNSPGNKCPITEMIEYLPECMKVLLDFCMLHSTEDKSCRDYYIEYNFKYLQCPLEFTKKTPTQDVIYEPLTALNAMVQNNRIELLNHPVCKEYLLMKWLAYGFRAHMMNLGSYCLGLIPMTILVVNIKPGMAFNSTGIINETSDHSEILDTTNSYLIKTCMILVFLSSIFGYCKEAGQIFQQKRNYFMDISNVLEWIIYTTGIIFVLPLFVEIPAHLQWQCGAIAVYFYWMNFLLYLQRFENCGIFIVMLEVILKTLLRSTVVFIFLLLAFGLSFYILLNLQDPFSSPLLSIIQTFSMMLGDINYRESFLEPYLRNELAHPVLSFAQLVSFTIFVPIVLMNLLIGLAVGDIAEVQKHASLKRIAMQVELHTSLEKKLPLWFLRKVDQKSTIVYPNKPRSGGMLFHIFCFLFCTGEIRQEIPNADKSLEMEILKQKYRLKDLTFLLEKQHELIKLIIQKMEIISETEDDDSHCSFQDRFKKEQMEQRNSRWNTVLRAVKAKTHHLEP
Text: Measurement of TRPA1 Antagonist Activity
Human TRPA1 Expression Plasmid
As cDNA encoding human TRPA1 (GenBank accession No. […]), a commercially available product was purchased (manufactured by Kazusa DNA Research Institute, clone No.: pFN21AB7348, item No.: FHC07217). Using this as a template, full-length human TRPA1 gene was amplified using the primer sequences shown below, by reaction using DNA polymerase (manufactured by Stratagene, trade name: PfuUltra High-Fidelity DNA Polymerase).
A recognition site (underlined) of restriction enzyme HindIII was added to the 5′ side, and XbaI site (underlined) was added to the 3′ side, and GTT of the template sequence was changed to termination codon TAG (bold). The obtained double stranded DNA was enzyme-digested with HindIII and XbaI, and introduced into a multicloning site of expression plasmid pcDNA3.1/zeo(+) (manufactured by Invitrogen) to give a human TRPA1 expression plasmid.
Human embryonic kidney-derived 293T cells were cultured in Dulbecco's Modified Eagle Medium containing 10% fetal bovine serum, 10 unit penicillin, and 10 μg streptomycin, plated on a petri dish having a diameter of 10 cm at 3×10^6 cells, and cultured for 24 hr. A medium containing a reduced amount of serum (manufactured by Invitrogen, trade name: OPTI-MEM, 600 μL), a gene insertion reagent (manufactured by Mirus Bio, trade name: Mirus TransIT-293, 18 μL), and human TRPA1 expression plasmid (6 μg) were mixed, the total amount of the mixture was added to the cells on the petri dish to allow for gene transfer. The cells were recovered about 8 hr later, plated on a poly-D-lysine coated 384 well black/clear bottom plate at 7,500-12,000 cells/well, and cultured overnight.
Measurement of Intracellular Calcium Increase
The 384 well plate was recovered, and the medium was removed. A calcium-bonded fluorescent indicator (manufactured by Molecular Device, trade name: Calcium4 Assay Kit, 40 μL) dissolved in assay buffer (1×HBSS, 20 mM HEPES, pH 7.2) was added, and the cells were stained in a 37° C. incubator for 1 hr. The cells were taken out at room temperature and left standing for 15 min or more. A test substance (10 μL) was added by a 384 well type dispenser, and the mixture was incubated at room temperature for 10 min. Then, allylisothiocyanate (12.5 μL) at a final concentration of 20 μM was added by a fluorescence imaging plate reader (manufactured by Molecular Device, FLIPR), and changes in the relative fluorescence intensity were measured for 5 min.
Test Substance Preparation
The test substance was dissolved in dimethyl sulfoxide and serially diluted with an assay buffer containing 0.1% bovine serum albumin (1×HBSS, 20 mM HEPES, pH 7.2) to a 5-fold concentration of the evaluation concentration. Allylisothiocyanate, which is a known TRPA1 activator, was dissolved in dimethyl sulfoxide to 100 mM, and further diluted 5-fold (100 μM) of the final concentration, like the test substance.
Calculation of Antagonist Activity
Under the test substance-free conditions, the maximum variation range of the fluorescence intensity before and after allylisothiocyanate stimulation was defined to be 100% activity rate, and the variation range before and after buffer stimulation was defined as 0% activity rate. The activity rate on addition of the test substance was determined, and the numerical value obtained by subtracting the activity rate from 100 was defined to be an inhibitory rate. IC50, which is the concentration of the test substance necessary for reaching the 50% inhibitory rate, was calculated from the sigmoid approximate curve by a spreadsheet software Excel-Fit.

T1 sequence (Q8BLA8 whole entry): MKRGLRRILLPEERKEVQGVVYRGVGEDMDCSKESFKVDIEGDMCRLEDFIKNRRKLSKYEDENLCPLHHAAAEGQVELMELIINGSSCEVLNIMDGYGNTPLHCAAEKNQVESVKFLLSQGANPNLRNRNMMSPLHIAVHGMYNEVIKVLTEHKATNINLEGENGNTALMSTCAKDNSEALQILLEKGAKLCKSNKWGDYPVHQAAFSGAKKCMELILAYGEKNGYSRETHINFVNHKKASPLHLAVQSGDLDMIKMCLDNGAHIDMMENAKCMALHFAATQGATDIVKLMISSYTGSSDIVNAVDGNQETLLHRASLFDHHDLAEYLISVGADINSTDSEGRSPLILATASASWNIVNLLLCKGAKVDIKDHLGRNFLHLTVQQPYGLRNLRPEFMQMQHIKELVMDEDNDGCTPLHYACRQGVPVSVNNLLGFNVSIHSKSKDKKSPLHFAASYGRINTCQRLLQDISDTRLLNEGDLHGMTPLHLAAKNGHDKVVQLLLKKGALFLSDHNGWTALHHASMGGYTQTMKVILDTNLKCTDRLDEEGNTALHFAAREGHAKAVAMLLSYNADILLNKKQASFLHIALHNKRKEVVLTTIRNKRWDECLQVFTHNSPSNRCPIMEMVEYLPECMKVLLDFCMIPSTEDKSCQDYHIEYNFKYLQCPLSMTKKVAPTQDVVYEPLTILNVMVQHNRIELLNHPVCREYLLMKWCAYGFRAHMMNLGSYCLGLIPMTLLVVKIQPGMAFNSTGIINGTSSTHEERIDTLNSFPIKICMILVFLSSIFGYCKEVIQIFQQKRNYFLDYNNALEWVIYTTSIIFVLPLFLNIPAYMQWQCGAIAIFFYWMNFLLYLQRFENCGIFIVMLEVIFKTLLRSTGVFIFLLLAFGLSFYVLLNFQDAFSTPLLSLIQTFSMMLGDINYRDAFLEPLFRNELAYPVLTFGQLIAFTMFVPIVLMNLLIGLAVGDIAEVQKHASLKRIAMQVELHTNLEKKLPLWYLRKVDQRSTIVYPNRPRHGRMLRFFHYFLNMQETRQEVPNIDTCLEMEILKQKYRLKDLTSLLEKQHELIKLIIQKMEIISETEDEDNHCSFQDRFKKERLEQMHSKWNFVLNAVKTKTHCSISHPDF

mouse licking model (p.o. 1 h, 30 mpk) (% inh.) (TRPA1 channel)	IC50 (human TRPA1) [µM]	SMILES
	0.06	O=C(NCc1nc(-c2ccc(C(F)(F)F)cc2)cs1)[C@@H]1CCCN1S(=O)(=O)c1ccc(F)c(F)c1 [compound 51, (2S)-1-(3,4-difluorophenyl)sulfonyl-N-({4-[4-(trifluoromethyl)-phenyl)thiazol-2-yl}methyl)pyrrolidine-2-carboxamide]
	0.29	O=C(NCc1nc(-c2ccc(C(F)(F)F)cc2)cs1)[C@@H]1CCCN1S(=O)(=O)c1ccc(F)c(Cl)c1 [compound 52, (2S)-1-(3-chloro-4-fluoro-phenyl)sulfonyl-N-({4-[4-(trifluoromethyl)phenyl]-thiazol-2-yl}methyl)pyrrolidine-2-carboxamide]
	4.6	O=C(NCc1nc(-c2ccc(C(F)(F)F)cc2)cs1)[C@@H]1CCCN1S(=O)(=O)c1ccc(F)cc1F [compound 53, (2S)-1-(2,4-difluorophenyl)sulfonyl-N-{{4-[4-(trifluoromethyl)-phenyl]thiazol-2-yl}methyl)pyrrolidine-2-carboxamide]

The remaining lines, values behind:

SMILES	mouse licking model (p.o. 1 h, 30 mpk) (% inh.) (TRPA1 channel)	IC50 (human TRPA1) [µM]
O=C(NCc1nc(-c2ccc(C(F)(F)F)cc2)cs1)[C@@H]1CCCN1S(=O)(=O)c1ccc(Cl)s1 [compound 1, (2S)-1-(5-chlorothiophene-2-sulfonyl)-N-({4-[4-(trifluoromethyl)phenyl]thiazol-2-yl}methyl)pyrrolidine-2-carboxamide]	36	0.14
O=C(NCc1nc(-c2ccc(OC(F)(F)F)cc2)cs1)[C@@H]1C=CCN1S(=O)(=O)c1ccc(Cl)s1 [compound 20, (2S)-1-(5-chlorothiophene-2-sulfonyl)-N-({4-(4-(trifluoromethoxy)phenyl]-thiazol-2-yl}methyl)-3,4-didehydropyrrolidine-2-carboxamide]	43	0.09
O=C(NCc1nc(-c2ccc(C(F)(F)F)cc2)cs1)[C@@H]1CCCN1S(=O)(=O)c1cc(F)cc(F)c1 [compound 54, (2S)-1-(3,5-difluorophenyl)sulfonyl-N-({4-[4-(trifluoromethyl)-phenyl]thiazol-2-yl}methyl)pyrrolidine-2-carboxamide]		0.17
